Measurements published in patent US5380759A, “Methyl N-[6-(3,4,5-trimethoxybenzloxy)imidazo[1,2-b]pyridazin-2-zyl]carbamate used to treat leukemia” (priority 1987, dated 1995).

Legend:
[1] = test system: B16; assay: In vivo activity against murine tumour B16; parameters: species or system mouse
Experimental: (§1) CD2-F1 mice, of the same sex, weighing within a 3 gram range surrounding 20 g, are used for this test. Control and test animals are injected intraperitoneally with a suspension of 10^6 viable P388/O tumour cells on day 0. In each test several dose levels which bracket the LD20 for the compound are evaluated; each dose level group contains 6 animals. The test compounds are prepared either in physiologic saline containing 0.05% Tween 80 or distilled water containing 5% dextrose and are administered intraperitoneally on days 1,5 and 9 relative to tumour implant. Doses are on a mg/kg basis according to individual animals' body weights. The day of death for each animal is recorded and the median day of death identified for each group. The difference between the median survival time for treated and control groups is expressed as a percentage increase in life span (% ILS).
(§2) G. In vivo activity of the compound of Example 1 against murine tumours
(§3) Using a similar procedure to the Lymphocytic Leukaemia P388/O test the compound of Example 1 was evaluated against the murine tumours B16, L1210 and M5076. A suspension of 10^6 tumour cells is implanted intraperitoneally into control and test animals on day zero. B16 tumour cells are administered intraperitoneally as a 1:10 Brei of cells on day zero. […] The day of death for each animal is recorded and the %ILS (percentage increase in life-span) calculated.

[2] = test system: P388/VCR; assay: In vivo activity against drug resistant tumour P388/VCR; parameters: species or system mouse; settings: optimum dose 12.5 mg/kg
Experimental: as §1
(§4) E. Activity Against Drug-Resistant Tumours
(§5) Using a similar procedure to the Lymphocytic Leukaemia P388/O test, the compound of Example 1 was evaluated against P388/O tumours which had been made resistant to the following standard, clinically used anti-tumour agents: […]

[3] = test system: P388/CPA; assay: In vivo activity against drug resistant tumour P388/CPA; parameters: species or system mouse; settings: optimum dose 12.5 mg/kg
[4] = test system: P388/O tumour; assay: Lymphocytic leukaemia P388/O test; format: in vivo, mouse; settings: 10 mg/kg i.p. days 1, 5 and 9
Experimental: C. Lymphocytic Leukemia P388/O Test
as §1

[5] = test system: WiDr human colon adenocarcinoma cells; assay: In vitro activity against human tumour cell line WiDr (proliferation); format: cell-based; settings: 96 h, MTT, read-out: IC50
Experimental: (§6) Cells from the human tumour cell lines DLD-1, HCT-116, WiDr and A549 are exposed to serially diluted concentrations of test compounds over a 96 hour period in culture. The ability of such cells to proliferate over the test period is determined.
(§7) Cells in log growth are plated into 96 well multiwell tissue culture dishes in 100 μl/well of RPMI 1640 culture medium supplemented with 10% foetal calf serum, antibiotics and test compound. All compounds are formulated initially at appropriate concentrations in DMSO, the final concentrations in this solvent being twenty times that required in the plate. A final 1 in 10 dilution in complete medium is then made before adding 100 μl to each well of the plate. All compounds are evaluated at concentrations ranging serially in four fold decrements from a top concentration some four fold greater than that already known to inhibit the proliferation of cells from the mouse lymphoid neoplasm, P388D1 by about 80 to 90 percent in a primary proliferative assay.
(§8) After 96 hours the proliferation of cells exposed to test compound is compared with control untreated cells by one of two methods:
(§9) b) 20 μl of MTT (5 mg/ml in PBS) is added to each well. After an incubation period of 4 hours the medium from each well is aspirated and replaced with 200 μl DMSO to dissolve the formazan crystals formed. Absorbances are read by an ELISA plate spectrophotometer at a wavelength of 540 nm. The IC50 is defined as that concentration of drug which decreases absorbance to 50% of that in control (drug-free) cultures. This method is used for the WiDr, HCT-116 and A549 cell lines.

[6] = test system: P388/AMSA; assay: In vivo activity against drug resistant tumour P388/AMSA; parameters: species or system mouse; settings: optimum dose 5.0 mg/kg
[7] = test system: L1210; assay: In vivo activity against murine tumour L1210; parameters: species or system mouse
[8] = test system: P388/5FU; assay: In vivo activity against drug resistant tumour P388/5FU; parameters: species or system mouse; settings: optimum dose 10.0 mg/kg
Experimental: as §1, §4, §5

[9] = test system: DLD-1 human colon carcinoma cells; assay: In vitro activity against human tumour cell line DLD-1 (proliferation); format: cell-based; settings: DLD-1, 96 h, methylene blue, read-out: IC50
Experimental: as §6, §7, §8
a) Culture supernatants are aspirated and cells fixed and stained by adding a solution of methylene blue (5 g per liter of 50% ethanol: water, 100 μl/well). After 30 minutes at room temperature unbound stain is washed off by immersing plates in water. Stained cells are solubilised overnight using 1% Sarkosyl (Sigma) in phosphate-buffered saline (100 μl/well). Absorbances are read by an ELISA plate spectrophotometer at a wavelength of 620 nm. The IC50 is defined as that concentration of drug which decreases absorbance to 50% of that in control (drug-free) cultures. This method is used for the DLD-1 cell line.

[10] = test system: M5076; assay: In vivo activity against murine tumour M5076; parameters: species or system mouse; settings: 5 mg/kg i.p. days 1, 5 and 9; 1 expt
Experimental: as §1, §2, §3

[11] = test system: P388/ADR; assay: In vivo activity against drug resistant tumour P388/ADR; parameters: species or system mouse; settings: optimum dose 10.0 mg/kg
Experimental: as §1, §4, §5

[12] = test system: HCT-116 human colon carcinoma cells; assay: In vitro activity against human tumour cell line HCT-116 (proliferation); format: cell-based; settings: HCT-116, 96 h, MTT, read-out: IC50
Experimental: as §6, §7, §8, §9

[13] = test system: P388/BCNU; assay: In vivo activity against drug resistant tumour P388/BCNU; parameters: species or system mouse; settings: optimum dose 7.5 mg/kg
Experimental: as §1, §4
Using a similar procedure to the Lymphocytic Leukaemia P388/O test, the compound of Example 1 was evaluated against P388/O tumours which had been made resistant to the following standard, clinically used anti-tumour agents:
bis-chloronitrosourea (BCNU)

[14] = test system: P388/ActD; assay: In vivo activity against drug resistant tumour P388/ActD; parameters: species or system mouse; settings: optimum dose 12.5 mg/kg
Experimental: as §1, §4, §5

[15] = test system: P388/Cis--Pt; assay: In vivo activity against drug resistant tumour P388/Cis-Pt; parameters: species or system mouse; settings: optimum dose 10.0 mg/kg
[16] = test system: A549 human lung carcinoma cells; assay: In vitro activity against human tumour cell line A549 (proliferation); format: cell-based; settings: A549, 96 h, MTT, read-out: IC50
Experimental: as §6, §7, §8, §9

COC(=O)Nc1cn2nc(OCc3cc(OC)c(OC)c(OC)c3)ccc2n1 [Example 1, Methyl N-[6-(3,4,5-trimethoxybenzyloxy)imidazo[1,2-b]pyridazin-2-yl]carbamate]
Mean % ILS (±SEM) ([1]; 5 mg/kg i.p. days 1, 5 and 9, 3 expts): 69 (±4) % | activity in vivo against B16 melanoma ([1]; in words): good activity | 60 Day Survivors [2]: 3/6 | % ILS [2]: +145% | 60 Day Survivors [3]: 1/6 | % ILS [3]: +150% | 30 Day survivors [4]: 6/6 | 60 Day Survivors [4]: 2/6 | ILS at 10 mg/kg ([4]; Mus musculus, P388, ip): 300% | IC50 [5]: 30 nM | 60 Day Survivors ([6]; (day 31)): 4/6 | % ILS [6]: +134% | Mean % ILS (±SEM) ([7]; 10 mg/kg i.p. days 1, 5 and 9, 2 expts): 134 (±72) % | activity in vivo against L1210 leukaemia ([7]; in words): good activity | 60 Day Survivors [8]: 0/6 | % ILS [8]: +92% | IC50 [9]: 11.6 nM | Mean % ILS (±SEM) [10]: 28% | 60 Day Survivors [11]: 0/6 | % ILS [11]: +90% | IC50 [12]: 9.2 nM | 60 Day Survivors [13]: 0/6 | % ILS [13]: +131% | 60 Day Survivors [14]: 1/6 | % ILS [14]: +109% | 60 Day Survivors [15]: 1/6 | % ILS [15]: +50% | IC50 [16]: 24 nM
